From patent publication US20210121426A1, “BLOOD PURIFICATION BY ALKALINIZING AGENT” (TOHOKU UNIVERSITY, priority 2017, published 2021)
Marks after values point to notes of the source that are not given here.

Legend:
argininosuccinic acid = experiment: Urine argininosuccinic acid (ASA) corrected by urinary specific gravity; format: in vivo, human
Text: (§1) Medical Examination, Vol. 44, No. 1, 1995, pages 79-83 by Tetsuo Aoki et al. was referred to. A urinary specific gravity 1.022 was converted into a reference value.
(§2) Specific gravity correction value (unit/1.022·UG)=actual measurement value×(1.022−1.000)/(specific gravity value−1.000)

β2-microglobulin = experiment: Human clinical trial: urinary β2-microglobulin (latex agglutination method); format: in vivo
Description: (§3) 1. […] Patients were assigned to each group so that age, sex, presence of diabetes, and eGFR were not biased. Each group was treated according to the “CKD medical care guide-summary of treatment” (hereinafter referred to as standard treatment).
(§4) An alkalinizing agent was not administered to the control group. […] A pH of early morning urine was controlled over time so that the dosage could be increased up to 6 tablets, 3 times a day (morning, noon, evening) as needed according to the discretion of the physician in cases where a pH of early morning urine was less than pH 6.5. To the group B, 3 tablets a day in which each tablet contained 500 mg of sodium bicarbonate were orally administered 3 times a day (morning, noon, evening) for 24 weeks. A pH of early morning urine was controlled over time so that the dosage could be increased up to 6 tablets, 3 times a day (morning, noon, evening) as needed according to the discretion of the physician in cases where a pH of early morning urine was less than pH 6.5.
(§5) Early morning urine and blood were collected before the start of administration, and 6 weeks, 12 weeks, and 24 weeks after the start of administration, and each specimen was stored at −80° C. Methods used in the present field for indoxyl sulfate, p-cresyl sulfate, phenylacetyl-L-glutamine, hippuric acid, and argininosuccinic acid in urine and blood (Sato, E., et. al., Metabolic alteration by indoxyl sulfate in skeletal muscle induce uremic sarcopenia in chronic kidney disease., Sci Rep. 2016 Nov. 10; 6:36618. doi: 10.1038/srep36618, and the like) were referred to, and quantitative analysis was performed using the following liquid chromatography triple quadrupole mass spectrometer (LC-MS/MS).
(§6) In addition, the amount of urinary β2-microglobulin was measured by latex agglutination method using the LZ test “Eiken” β2-M and LZ-β2-M standard U “Eiken” (Eiken Chemical Co., Tokyo, Japan). Furthermore, the amount of cystatin C in the serum was measured by a colloidal gold agglutination method using Nescoat GC Cystatin C (Nm) (Alfresa Pharma, Osaka, Japan).
(§7) For statistical analysis, the Mann-Whitney test was used for comparison between groups, and the Wilcoxon test was used for comparison of changes over time. The Pearson test was used for correlation.

[1] = Human clinical trial: urinary specific gravity of early morning urine (urine hydrometer); format: in vivo
Description: as §3, §4
In addition, amounts of change in each urinary specific gravity after 6, 12, and 24 weeks after the start of the test are respectively shown as a % relative value with respect to each urinary specific gravity before the start of the test, and a difference from urinary specific gravity before the start of the teste in Tables 11-0-2 and 11-0-3. The urinary specific gravity was measured using a urine hydrometer (PAL-09S, Atago Co., Ltd., Tokyo, Japan).

hippuric acid = experiment: Urine hippuric acid (HA) corrected by urinary specific gravity; format: in vivo, human
Text: as §1, §2

cystatin C = experiment: Human clinical trial: cystatin C (colloidal gold agglutination method); format: in vivo
Description: as §3, §4, §5, §6, §7

[2] = 0 W, before the start of administration
[3] = 6-24 W, all data of 6, 12 and 24 weeks

What does the source list for `O=C([O-])O.[Na+]` [Bicarbonate, sodium bicarbonate]?
Urine ASA, specific gravity corrected (argininosuccinic acid; 0 W): 5.87 ± 5.13 μg · mL^−1/1.022 · UG; Urine ASA, specific gravity corrected (argininosuccinic acid; 6-24 W, all data): 5.02 ± 3.37 μg · mL^−1/1.022 · UG; Urine ASA, specific gravity corrected, % Relative value vs week 0 (argininosuccinic acid; 6-24 W, all data): 97 ± 31%; Urine ASA, specific gravity corrected, difference vs week 0 (argininosuccinic acid; 6-24 W, all data): −0.85 ± 2.76 μg · mL^−1/1.022 · UG; Urine ASA, specific gravity corrected (argininosuccinic acid; 6 W): 5.47 ± 3.87 μg · mL^−1/1.022 · UG; Urine ASA, specific gravity corrected, % Relative value vs week 0 (argininosuccinic acid; 6 W): 101 ± 32%; Urine ASA, specific gravity corrected, difference vs week 0 (argininosuccinic acid; 6 W): −0.40 ± 2.25 μg · mL^−1/1.022 · UG; Urine ASA, specific gravity corrected (argininosuccinic acid; 12 W): 4.66 ± 2.78 μg · mL^−1/1.022 · UG; Urine ASA, specific gravity corrected, % Relative value vs week 0 (argininosuccinic acid; 12 W): 93 ± 29%; Urine ASA, specific gravity corrected, difference vs week 0 (argininosuccinic acid; 12 W): −0.21 ± 3.04 μg · mL^−1/1.022 · UG; Urine ASA, specific gravity corrected (argininosuccinic acid; 24 W): 4.93 ± 3.58 μg · mL^−1/1.022 · UG; Urine ASA, specific gravity corrected, % Relative value vs week 0 (argininosuccinic acid; 24 W): 97 ± 33%; Urine ASA, specific gravity corrected, difference vs week 0 (argininosuccinic acid; 24 W): −0.94 ± 3.02 μg · mL^−1/1.022 · UG; Urine B2-microglobulin (β2-microglobulin; [2]): 99.0 ± 62.8 µg/L; Urine B2-microglobulin (β2-microglobulin; [3]): 206.2 ± 255.8^a μg/L; Urine B2-microglobulin, change from week 0 (β2-microglobulin; [3]): 148.3 ± 258.4 ^b ug/L; Urine B2-microglobulin (β2-microglobulin; 6 W): 216.3 ± 228.2^e μg/L; Urine B2-microglobulin, change from week 0 (β2-microglobulin; 6 W): 117.3 ± 220.7 µg/L; Urine B2-microglobulin (β2-microglobulin; 12 W): 264.5 ± 301.9 µg/L; Urine B2-microglobulin, change from week 0 (β2-microglobulin; 12 W): 165.5 ± 282.0^ ug/L; Urine B2-microglobulin (β2-microglobulin; 24 W): 261.0 ± 301.5^c,f μg/L; Urine B2-microglobulin, change from week 0 (β2-microglobulin; 24 W): 162.0 ± 281.8 ^c ug/L; kidney tubular damage (kidney proximal tubular damage) associated with progression of the stage (β2-microglobulin; from urinary β2-microglobulin): did not suppress; Urine Specific Gravity ([1]; 0 W, before the start of the test): 1.014 ± 0.007; Urine Specific Gravity ([1]; 6-24 W, all data): 1.014 ± 0.006; Urine Specific Gravity (% Relative value vs week 0) ([1]; 6-24 W, all data): 100.00 ± 0.67%; Urine Specific Gravity, difference vs week 0 ([1]; 6-24 W, all data): 0.0002 ± 0.0058^b; Urine Specific Gravity ([1]; 6 W): 1.014 ± 0.006; Urine Specific Gravity (% Relative value vs week 0) ([1]; 6 W): 100.02 ± 0.53%; Urine Specific Gravity, difference vs week 0 ([1]; 6 W): 0.0002 ± 0.0054; Urine Specific Gravity ([1]; 12 W): 1.013 ± 0.005; Urine Specific Gravity (% Relative value vs week 0) ([1]; 12 W): 99.89 ± 0.58^e %; Urine Specific Gravity, difference vs week 0 ([1]; 12 W): −0.0012 ± 0.0058^e; Urine Specific Gravity ([1]; 24 W): 1.016 ± 0.007; Urine Specific Gravity (% Relative value vs week 0) ([1]; 24 W): 100.17 ± 0.61%; Urine Specific Gravity, difference vs week 0 ([1]; 24 W): 0.0017 ± 0.0062; urinary specific gravity value ([1]; over 6, 12 and 24 weeks, compared with the control group): maintained or increased; Urine HA, specific gravity corrected (hippuric acid; 0 W): 202.3 ± 185.6 μg · mL^−1/1.022 · UG; Urine HA, specific gravity corrected (hippuric acid; 6-24 W, all data): 170.2 ± 101.6 μg · mL^−1/1.022 · UG; Urine HA, specific gravity corrected, % Relative value vs week 0 (hippuric acid; 6-24 W, all data): 118 ± 106%; Urine HA, specific gravity corrected, difference vs week 0 (hippuric acid; 6-24 W, all data): −32.1 ± 160.3 μg · mL^−1/1.022 · UG; Urine HA, specific gravity corrected (hippuric acid; 6 W): 161.8 ± 111.1 μg · mL^−1/1.022 · UG; Urine HA, specific gravity corrected, % Relative value vs week 0 (hippuric acid; 6 W): 104 ± 89%; Urine HA, specific gravity corrected, difference vs week 0 (hippuric acid; 6 W): −40.5 ± 171.7 μg · mL^−1/1.022 · UG; Urine HA, specific gravity corrected (hippuric acid; 12 W): 171.1 ± 87.0 μg · mL^−1/1.022 · UG; Urine HA, specific gravity corrected, % Relative value vs week 0 (hippuric acid; 12 W): 133 ± 134%; Urine HA, specific gravity corrected, difference vs week 0 (hippuric acid; 12 W): −31.2 ± 163.7 μg · mL^−1/1.022 · UG; Urine HA, specific gravity corrected (hippuric acid; 24 W): 177.7 ± 111.0 μg · mL^−1/1.022 · UG; Urine HA, specific gravity corrected, % Relative value vs week 0 (hippuric acid; 24 W): 118 ± 96%; Urine HA, specific gravity corrected, difference vs week 0 (hippuric acid; 24 W): −24.6 ± 155.3 μg · mL^−1/1.022 · UG; Plasma Cystatine C (cystatin C; [2]): 1.165 ± 0.296 mg/L; Plasma Cystatine C (cystatin C; [3]): 1.154 ± 0.278 mg/L; Plasma Cystatine C (cystatin C; 6 W): 1.171 ± 0.281 mg/L; Plasma Cystatine C (cystatin C; 12 W): 1.151 ± 0.295 mg/L; Plasma Cystatine C (cystatin C; 24 W): 1.141 ± 0.275 mg/L; influence on the function of glomeruli (cystatin C; from cystatin C, Table 8): no influence
